The results in this text go back to PubChem BioAssay AID1996.

≈ marks a conversion by molar mass, not a printed value.

For the data set the following is noted: buffer; pH 7.4; 200.0 µM.
`COc1ccc(Cl)cc1NC(=O)c1noc(C)c1[N+](=O)[O-]` yielded a solubility (kinetic) of 0.009 mg/mL (≈ 28.9 µM).
To `O=C(OCC(=O)c1cccs1)c1ccc([N+](=O)[O-])o1` belongs 0.0164 mg/mL (≈ 58.3 µM); to `O=C(COc1ccccc1)NCC(=O)Nc1ccncc1`, > 0.0428 mg/mL.
To `CCN(CC(=O)NC1CC1)S(=O)(=O)c1ccc(C)cc1` belongs > 0.0445 mg/mL; to `O=C(Nc1cc(S(=O)(=O)N2CCOCC2)ccc1N1CCCCC1)c1ccccc1Br`, 0.0061 mg/mL (≈ 12 µM); to `O=c1[nH]c2ccc(S(=O)(=O)NCc3ccccc3)cc2[nH]1`, 0.0225 mg/mL (≈ 74.2 µM).
To `CCC(=O)Nc1cccc(-c2nc3ccc(C)cc3o2)c1` belongs 0.0016 mg/mL (≈ 5.71 µM).
Turning to `NC(=O)CSc1nccn1Cc1ccc(Cl)cc1`, the solubility (kinetic) is > 0.0423 mg/mL.
As to `CC(C)Cn1c(SCC(=O)N2CCc3ccccc3C2)nc(O)cc1=O`, the kinetic solubility was > 0.056 mg/mL.
The figure for `CC(C)CCC1(C)NC(=O)N(CC(=O)NCC(=O)Nc2ccc(F)c(F)c2F)C1=O` (stereo unspecified) is > 0.0643 mg/mL; for `COc1ccc(Cl)cc1C(=O)NCCCn1ccnc1` it is > 0.0441 mg/mL; for `COc1ccc(NC(=O)CCOc2cc(C)ccc2C)cc1S(=O)(=O)N1CCCCC1` it is 0.0079 mg/mL (≈ 17.7 µM).
As to `Cc1oc(-c2cccc(C(F)(F)F)c2)nc1CN1CCOCC1`, the kinetic solubility came to 0.0443 mg/mL (≈ 136 µM).
To `COc1ccc(CNC(=O)C(C)OC(=O)c2cccs2)cc1` (stereo unspecified) belongs 0.0269 mg/mL (≈ 84.2 µM); to `CC(C)CCn1c(N2CCCC2)nc2c1c(=O)[nH]c(=O)n2C`, > 0.0458 mg/mL; to `Cc1ccc(C(=O)Nc2ccc(CN3CCS(=O)(=O)CC3)cc2)cc1C`, 0.0427 mg/mL (≈ 115 µM).
`O=C(Nc1cccc([N+](=O)[O-])c1)C1C2CC/C=C\CCC21` (stereo unspecified) showed a solubility (kinetic) of 0.0008 mg/mL (≈ 2.79 µM).
In turn, `CSc1cccc(NS(=O)(=O)c2ccc(C(C)=O)cc2)c1` displayed a solubility (kinetic) of 0.0411 mg/mL (≈ 128 µM).
To `CC1Oc2ccccc2OC1C(=O)Nc1nccs1` (stereo unspecified) belongs 0.0181 mg/mL (≈ 65.5 µM); to `Cc1ccc(OCC(=O)Nc2cccc3ccccc23)c([N+](=O)[O-])n1`, 0.0315 mg/mL (≈ 93.4 µM).
With `COc1ccc(N(C)S(=O)(=O)c2cccc(C(=O)OCC(=O)c3c(N)n(C)c(=O)n(C)c3=O)c2)cc1`, the kinetic solubility was 0.0032 mg/mL (≈ 6.2 µM). This solubility kinetic is about 9.8-fold lower than that of the compound before.
To `O=C(COC(=O)c1c(Cl)cccc1Cl)NC1CCCCC1` belongs > 0.0495 mg/mL; to `Cc1ccc(C2NC(=NCc3ccccc3)Nc3nc(C)cc(=O)n32)cc1` (stereo unspecified), 0.0131 mg/mL (≈ 36.4 µM).
Compound `O=C(NCc1ccc(Cl)cc1)c1ccc2ccccc2n1` displayed a solubility (kinetic) of 0.0034 mg/mL (≈ 11.5 µM).
In turn, `Cc1ccccc1C(=O)Nc1nc(-c2cccnc2)cs1` gave a solubility (kinetic) of 0.0039 mg/mL (≈ 13.2 µM).
To `COc1c(C)cc(C(=O)C2CCCN(C3CCOCC3)C2)cc1C` (stereo unspecified) belongs > 0.0497 mg/mL; to `CC(=O)NC(CC(=O)N1CCN(C(C)=O)CC1)c1ccccc1` (stereo unspecified), > 0.0476 mg/mL.
The figure for `COc1ccccc1N1CCN(C(=O)c2cc3cc(Cl)ccc3[nH]2)CC1` is < 0.0003 mg/mL; for `CC(Sc1nnc2n1CCCCC2)C(=O)Nc1ccccc1[N+](=O)[O-]` (stereo unspecified) it is > 0.0542 mg/mL.
To `CNC(=O)CCc1ccc(OC)cc1` belongs > 0.029 mg/mL.
Consider `C=CCSc1nc(N)c2c3c(sc2n1)CN(C)CC3`, for which the solubility (kinetic) worked out at 0.0435 mg/mL (≈ 149 µM).
To `O=[N+]([O-])c1cccnc1N1CCN(c2ccc(F)cc2)CC1` belongs 0.0121 mg/mL (≈ 40 µM); to `COc1ccc(OC)c(NC(=O)c2cc3c(cc2Cl)N2CCCCCC2=NS3(=O)=O)c1`, 0.0037 mg/mL (≈ 7.98 µM); to `COc1ccc(C(=O)NCC(=O)N/N=C(\C)c2ccco2)cc1OC`, > 0.0518 mg/mL.
To `Cc1cccc(OCC(=O)Nc2ccc3nc(C)sc3c2)c1` belongs 0.0018 mg/mL (≈ 5.76 µM).
The figure for `COc1ccc(NC(=O)NCc2ccccn2)c(OC)c1` is 0.0421 mg/mL (≈ 147 µM).
For `CCN1CCN(CCC(=O)Nc2ccc(C)cc2)CC1.Cl`, the kinetic solubility is > 0.0468 mg/mL.
To `O=C(Cn1cnc([N+](=O)[O-])c1)Nc1ccccc1C(F)(F)F` belongs 0.039 mg/mL (≈ 124 µM).
The figure for `Cc1cc(N/C=C/C(=O)c2ccccc2)ccc1Br` is < 0.0007 mg/mL.
To `C=CCN1C(=O)C(CC(=O)O)SC1=Nc1cccc([N+](=O)[O-])c1` (stereo unspecified) belongs > 0.0503 mg/mL; to `Cc1cc(Cl)ccc1NC(=O)/C=N/O`, > 0.0319 mg/mL; to `CCOC(=O)c1cc([N+](=O)[O-])sc1N`, 0.0046 mg/mL (≈ 21.3 µM).
`Cc1ccc(C(=O)N2CCN(CCNC(=O)C(=O)Nc3ccc(Cl)cc3)CC2)cc1`: the solubility (kinetic) stood at 0.0026 mg/mL (≈ 6.06 µM).
The figure for `CC(C)(C)C(=O)Nc1ccc(S(=O)(=O)NC2=NCCCCC2)cc1` is > 0.0527 mg/mL; for `CCc1c(C)nc(N)c(C#N)c1-c1ccccc1` it is 0.0003 mg/mL (≈ 1.26 µM); for `O=C(c1ccc(F)cc1)N(Cc1ccco1)C1CCS(=O)(=O)C1` (stereo unspecified) it is > 0.0506 mg/mL.
To `CC(NCc1ccccc1O)C12CC3CC(CC(C3)C1)C2.Cl` (stereo unspecified) belongs 0.0419 mg/mL; to `CN(C)S(=O)(=O)c1cccc(C(=O)c2nccn2C)c1`, 0.0415 mg/mL (≈ 141 µM).
For `CC(C)=NN1C(c2nonc2N)=NOC1(C)C`, the kinetic solubility was > 0.0357 mg/mL.
The figure for `Cc1cccc(N2C(=O)CC(SC(N)=Nc3ccccc3)C2=O)c1` (stereo unspecified) is 0.003 mg/mL (≈ 8.84 µM); for `COc1ccc2nc(C)cc(SCC(=O)N3CCCCC3)c2c1` it is > 0.0496 mg/mL.
